Test results: PMC5923384, “Transporter gene acquisition and innovation in the evolution of Microsporidia intracellular parasites” (Nature Communications, 2018)

What was measured:
AncNTTRoz/Mic = conditions: read-out: apparent Km; PBS; 32P-labelled ATP plus unlabelled ATP; labelled compound
AncNTTMic = conditions: read-out: apparent Km; PBS; 32P-labelled ATP plus unlabelled ATP; labelled compound
EcNTT1 = target: T1, EcNTT1 (Encephalitozoon cuniculi, UniProt Q8SRA2); assay: […]-nucleotide uptake by NTT-expressing E. coli, […] min; format: cell-based; conditions: PBS; labelled compound
T1 construct: gene NTT1; full-length, N-terminal His10 tag, pET16b, in E. coli Rosetta2 DE3 pLysS cells
T1 sequence (Q8SRA2 1-559): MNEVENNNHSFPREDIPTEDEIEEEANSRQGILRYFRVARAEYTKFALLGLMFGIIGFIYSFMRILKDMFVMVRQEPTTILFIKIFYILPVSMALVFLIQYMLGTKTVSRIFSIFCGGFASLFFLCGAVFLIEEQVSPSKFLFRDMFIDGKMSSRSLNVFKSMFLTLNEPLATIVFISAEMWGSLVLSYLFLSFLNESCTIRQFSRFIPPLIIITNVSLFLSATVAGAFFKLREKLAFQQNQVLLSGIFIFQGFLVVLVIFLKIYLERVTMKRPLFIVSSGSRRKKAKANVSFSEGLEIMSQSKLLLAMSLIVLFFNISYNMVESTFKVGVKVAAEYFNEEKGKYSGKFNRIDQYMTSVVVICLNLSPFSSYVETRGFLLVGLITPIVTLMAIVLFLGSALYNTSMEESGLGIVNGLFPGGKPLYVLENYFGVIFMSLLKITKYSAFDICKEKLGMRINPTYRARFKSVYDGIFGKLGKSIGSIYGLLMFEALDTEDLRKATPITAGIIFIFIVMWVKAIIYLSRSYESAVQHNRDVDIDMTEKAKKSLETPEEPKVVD

RaNTT1 = target: T2, RaNTT1 (Rozella allomycis, UniProt A0A075B2H2); assay: competition with […]-ATP uptake in NTT-expressing E. coli; format: cell-based; conditions: 50,000x excess unlabelled competitor; PBS
T2 construct: gene O9G_001541; PCR-amplified gene, N-terminal His10 tag, pET16b, in E. coli Rosetta2 DE3 pLysS cells
T2 sequence (A0A075B2H2 1-597): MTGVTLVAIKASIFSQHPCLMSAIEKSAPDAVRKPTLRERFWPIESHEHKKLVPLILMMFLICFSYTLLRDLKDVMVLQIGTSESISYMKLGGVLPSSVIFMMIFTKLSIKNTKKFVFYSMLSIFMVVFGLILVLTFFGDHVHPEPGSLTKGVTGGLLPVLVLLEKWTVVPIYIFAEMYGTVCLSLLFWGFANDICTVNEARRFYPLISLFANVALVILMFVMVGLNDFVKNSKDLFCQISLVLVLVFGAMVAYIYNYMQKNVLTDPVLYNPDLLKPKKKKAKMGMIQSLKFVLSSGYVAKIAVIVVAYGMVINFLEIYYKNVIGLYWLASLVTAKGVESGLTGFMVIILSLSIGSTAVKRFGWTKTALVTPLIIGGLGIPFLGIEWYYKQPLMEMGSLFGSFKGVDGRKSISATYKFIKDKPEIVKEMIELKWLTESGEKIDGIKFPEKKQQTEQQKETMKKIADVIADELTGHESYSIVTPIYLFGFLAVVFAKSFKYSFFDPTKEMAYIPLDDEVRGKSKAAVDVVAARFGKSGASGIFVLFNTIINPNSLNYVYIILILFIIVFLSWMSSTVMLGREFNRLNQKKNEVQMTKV

Nc1ncnc2c1ncn2[C@@H]1O[C@H](COP(=O)(O)OP(=O)(O)OP(=O)(O)O)[C@@H](O)[C@H]1O [ATP]
Km (AncNTTRoz/Mic): 0.8 ± 0.15 µM | Km (AncNTTMic): 1.9 ± 1.35 µM

Nc1nc2c(ncn2[C@@H]2O[C@H](COP(=O)(O)OP(=O)(O)OP(=O)(O)O)[C@@H](O)[C@H]2O)c(=O)[nH]1 [GTP]
[32P]-nucleotide uptake by NTT-expressing E. coli, 30 min (EcNTT1): GTP is transported at high levels for all of the Microsporidia NTTs

Nc1ncnc2c1ncn2[C@@H]1O[C@H](COP(=O)(O)OP(=O)(O)O)[C@@H](O)[C@H]1O [ADP]
residual [32P]-ATP uptake (RaNTT1): transport by R. allomycis RaNTT1 was strongly reduced only by cold ATP and ADP
